In US9220746B2, “Compounds and methods for treating bone disorders and controlling weight” (The University of North Carolina at Chapel Hill, priority 2009, dated 2015):

Columns and labels:
mouse metatarsal bones = experiment: Ex vivo metatarsal explant bone growth and mineralization; type: cell-based; conditions: for bone growth and calcification: metatarsals derived from IGFBP-2−/− mice, 20-200 ng/ml
From the text: This system uses an ex vivo explant system, therefore it is a transition between cultured cells and in vivo experiments. The bone forming tissue is removed directly from a mouse and then grown in organ culture for several days. The test additives can be added directly to the medium at any concentration in order to test for biological activity. The method is as follows: mouse metatarsal bones were isolated from newborn mice between days 0 and 3 after birth using the dissecting microscope. The middle three metatarsals were used for all experiments. Three metatarsals were incubated per well in a 24 well tissue culture dish in DMEM containing 0.5% bovine serum, […], 1 mM beta glycerol phosphate at 37° C. The medium was replaced one day later and the metatarsals are cultured for up to 10 days. Growth was measured by quantitative increase in size, both length and width of the bones using an inverted phase microscope with a built in micrometer scaling bar for measurements. Mineralization was assessed by the addition of calcein (500 ng/ml) to the medium for 2 hrs prior to tissue fixation. Fluorescent images were captured using a digital camera attached to an inverted microscope and quantifying calcein fluorescence under the appropriate […] stimulus. Bone and cartilage histology were measured by fixing the bones in 4% PFA overnight and storing at 70% ethanol, followed by […] embedding sectioning and staining. Sections were stained with H&E, Alizaran red or alkaline phosphatase. For analysis of proteins, the tissue was homogenized in Laemmli sample buffer and gels were run using standard SDS polyacrylamide gel electrophoresis and western blotting.

3T3L1 = experiment: Fat cell differentiation of 3T3L1 cells, oil red O staining; type: cell-based
Method: In some assays, fat cell data were obtained by using the cell line 3T3L1, which is used to study fat cell differentiation. These cells are grown as fat cell precursors. These cells are maintained in Hams F12 with fetal calf serum and 15 mM glutamine. To stimulate them to enter the fat cell differentiation pathway, isomethylbutylxanine, dexamethasone and insulin are added using concentrations of 0.5 mM IBMX 16.7 nM insulin and 0.1 uM dexamethasone. In some cases 100 ng/ml IGF-I was added instead of insulin. Three days after the addition, differentiation into adipocytes is apparent and is detected by oil red O staining.
To determine the effects of the peptide of SEQ ID NO:1, it was added at concentrations of 20 ng/ml, 200 ng/ml and 2 ug/ml. A detectable inhibition of adipocyte differentiation, as determined by a decrease in the number of oil red O positive cells, was detected using 20 ng/ml of peptide. The response was maximal at 200 ng/ml and not increased further by adding 2 mcg/ml.
For oil red O staining, a stock solution of […] isoproponol is prepared. 60 ml of solution is mixed with 40 ml of water and allowed to sit at room temperature for an hour and then filtered. The media is aspirated from the adipocyte cultures and cells are fixed in 1% formaldehyde. Formaldehyde is aspirated and the oil red O solution is added in an amount necessary to cover the cells, which are then left at room temperature for one hour. The stain is then removed and the plates are washed with distilled water and dried. Typically 60-70% of the cells stain positive after 3 days.

adherent macrophages = experiment: Osteoclast differentiation, tartrate resistant acid phosphatase staining; type: cell-based, mouse; conditions: for osteoclast differentiation: macrophages of IGFBP-2 gene deleted Balb/c mice, mCSF, RANK ligand, TRAP stain day 7
From the text: The method for osteoclast differentiation is as follows: Balb/c mice in which the IGFBP-2 gene had been deleted (see V. DeMambro et al, Endocrinology, 149(5): 2051-2061 (2007)) were anesthetized and sacrificed using cervical dislocation. The femurs from each mouse were dissected free of soft tissue and the bone marrow aspirated by needle puncture. Cells were removed sterile and resuspended in DMEM with 10% fetal calf serum. The cells were centrifuged at 700×g and the cell pellet resuspended in medium and plated in 24 well plates at a concentration of 5000 cells/cm^2. The plates that are used are low adherence plates that have no additives to facilitate cell adherence. Under these conditions macrophages will adhere while other cells will not. The media is supplemented with mCSF 20 ng/ml. After 3 days the cells are removed from the plate and the adherent macrophages are exposed to fresh media containing 10% FBS and mCSF. This is repeated again after 3 days and then after an additional 3 days cells are trypsinized and replated in fresh plates at 6×10^4 cells/cm. At this time RANK ligand, 50 ng/ml, is added, although in some experiments concentrations as low as 10 ng/ml were utilized. Medium is changed at 3 and 6 days and on day 7 cells are stained for tartrate resistant acid phosphatase, a marker of osteoclast differentiation. IGFBP-2 was added at concentrations between 50 ng/ml and 500 mcg/ml. The peptide was added at 20 or 200 ng/ml.
For tartrate resistant acid phosphatase staining, a 1% solution is prepared and incubated with the cells for 30 min at room temperature. Cultures are then washed and cell number determined by manual counting.

Molecule: KHHLGLEEPKKLR (IGFBP-2 heparin binding domain-containing peptide sequence) [peptide of SEQ ID NO:1]
- bone growth and calcification (mouse metatarsal bones): stimulated bone growth and calcification
- effect on bone growth (mouse metatarsal bones; metatarsals from normal mice): modest additional stimulatory effect
- concentration at which inhibition of adipocyte differentiation (decrease in oil red O positive cells) was detectable (3T3L1; 3T3L1, added at 20 ng/ml, 200 ng/ml and 2 ug/ml): 20 ng/mL
- concentration at which the response (inhibition of adipocyte differentiation) was maximal (3T3L1; 3T3L1, not increased further by 2 mcg/ml): 200 ng/mL
- oil red O positive cells at maximum effect of the peptide (3T3L1; typically 60-70% of the cells stain positive after 3 days): < 20%
- serum concentration at which osteoclast differentiation was still detected in the presence of the peptide (adherent macrophages): 0.5%
- osteoclast differentiation (adherent macrophages): would not differentiate into osteoclasts without addition

B1: IGFBP-2: Insulin-like growth factor binding protein-2, 36,000 dalton protein, purified from cellular conditioned medium (protein, UniProt P18065 36-325, looked up)
Insulin-like growth …: AEVLFRCPPCTPERLAACGPPPVAPPAAVAAVAGGARMPCAELVREPGCGCCSVCARLEGEACGVYTPRCGQGLRCYPHPGSELPLQALVMGEGTCEKRRDAEYGASPEQVADNGDDHSEGGLVENHVDSTMNMLGGGGSAGRKPLKSGMKELAVFREKVTEQHRQMGKGGKHHLGLEEPKKLRPPPARTPCQQELDQVLERISTMRLPDERGPLEHLYSLHIPNCDKHGLYNLKQCKMSLNGQRGECWCVNPNTGKLIQGAPTIRGDPECHLFYNEQQEARGVHTQRMQ
- bone growth and calcification (mouse metatarsal bones): stimulated bone growth and calcification
- concentrations found to inhibit adipocyte differentiation (3T3L1; 3T3L1, tested in parallel): 50 to 500 ng/mL
- osteoclast differentiation (adherent macrophages): would not differentiate into osteoclasts without addition
